{"source": "patent US20250288572A1", "about": "“COMPOSITIONS AND METHODS FOR TREATING PULMONARY VASCULAR DISEASE” (UNIVERSITY OF PITTSBURGH-OF THE COMMONWEALTH SYSTEM OF …, priority 2022, published 2025)", "molecules": {"B1": {"name": "rhGal8: recombinant human LGALS8 (galectin-8), R&D Systems 1305-GA-050 (protein, UniProt O00214 1-317, looked up)", "Galectin-8": "MMLSLNNLQNIIYNPVIPFVGTIPDQLDPGTLIVIRGHVPSDADRFQVDLQNGSSMKPRADVAFHFNPRFKRAGCIVCNTLINEKWGREEITYDTPFKREKSFEIVIMVLKDKFQVAVNGKHTLLYGHRIGPEKIDTLGIYGKVNIHSIGFSFSSDLQSTQASSLELTEISRENVPKSGTPQLRLPFAARLNTPMGPGRTVVVKGEVNANAKSFNVDLLAGKSKDIALHLNPRLNIKAFVRNSFLQESWGEEERNITSFPFSPGMYFEMIIYCDVREFKVAVNGVHSLEYKHRFKELSSIDTLEINGDIHLLEVRSW"}}, "key": {"[1]": {"system": "rats with PAH due to monocrotaline exposure", "assay": "Monocrotaline PAH rats, glutaminase inhibitors daily i.p. Days 7-21 (Example 2)", "type": "in vivo", "conditions": "MCT rats; for Fulton index / right ventricular systolic pressure (RVSP): 10 mg/kg daily i.p. Days 7-21, vs vehicle control", "protocol": "In rats with PAH due to monocrotaline exposure, daily i.p, delivery of CB-839 (10 mg/kg) vs. UPGL00064 (10 mg/kg) vs. vehicle control was performed from Days 7-21 post-monocrotaline exposure. […] Error bars represent ±SEM. […] In rats with PAH due to monocrotaline exposure, daily i.p. delivery of CB-839 (10 mg/kg) vs. UPGL000064 (10 mg/kg) vs. vehicle control was performed from Days 7-21 post-monocrotaline exposure. […] Error bars represent ±SEM."}, "[2]": {"system": "PAECs", "assay": "RT-qPCR gene expression in PAECs", "type": "cell-based, human", "conditions": "for expression of Cluster 15 members (SLC9A3R1, LGALS3): IL-1β-induced expression changes", "protocol": "(§1) The hypoxia chamber (modular incubator chamber) was obtained from Billups-Rothenberg Inc. (Del Mar, Cali) and placed in regulated CO2 incubator at 37° C.\nRT-qPCR analysis: Cells were lysis in 1 ml of QiaZol reagent (Qiagen). Total RNA content was extracted using the RNeasy kit (Qiagen), according to the manufacturer's instructions. Total RNA concentration was determined using a BioTek Synergy multimode plate reader. Messenger RNAs were reverse transcribed to generate cDNA using the Multiscript RT kit (Thermo Fisher Scientific). cDNA for specific gene targets was amplified and quantified via fluorescently-labeled Taqman primer sets and Taqman fast advanced master mix (Thermo Fisher Scientific) using an Applied Biosystems QuantStudio 6 Flex Real-Time PCR System."}, "[3]": {"system": "PAECs", "assay": "Flow cytometry detection of mitochondrial superoxide (MitoSOX Red) in PAECs", "quoted_text": "To assess the effect of I-BET under inflammatory conditions, cells were treated with recombinant human IL-1β (10 ng/ml, Peprotech) at about 70-80% confluency for 48 h in complete media along with vehicle control (DMSO, Sigma-41639), I-BET151 (500 nM), 1-BET762 (500 nM) (Selleckchem-S2780/S7189), as indicated.\nFor hypoxia exposure, cells were plated in 6-well cell culture plates at 1×10^5 cells/well, grown for 24 hr and placed into a normobaric hypoxia chamber (1%02) for 24 h under specific treatment conditions. Namely, for I-BET and siLGALS8 exposures, cells were either pre-treated with I-BET/vehicle control (VC) or transfected with siLgals8/Scr for 24 h. Then, they were cultured in basal media at 1% 02. After 24 h, caspase activity and mitochondrial superoxide levels were quantified. To detect activation status of pSTAT1/STAT1 by immunoblot, cells were exposed to 8 h of hypoxia.\nFlow cytometry detection of mitochondria superoxide: For measuring mitochondrial superoxide, cells were incubated with 5 μM of MitoSOX Red mitochondrial superoxide indicator (Thermo Fisher Scientific) for 10 min in 37° C."}, "[4]": {"system": "PAECs", "assay": "Cellular apoptosis, caspase-3/7 activity (Caspase-Glo 3/7) in PAECs", "type": "cell-based, human", "conditions": "PAECs", "protocol": "as §1\nCellular apoptosis: Caspase-3/7 activity was quantified using the Caspase-Glo 3/7 Assay (Promega), according to manufacturer's instructions. Caspase-3/7 activity was normalized to total protein content determined by BCA method (Thermo Fisher Scientific)."}, "[5]": {"system": "hypoxia-induced pulmonary hypertension mice", "assay": "Hypoxia-induced (Group 3) pulmonary hypertension mouse model", "description": "Animal models: For the hypoxia-induced pulmonary hypertension mice, male C57BL/6J mice (8 weeks old) (RRID:IMSR_JAX:000664) were purchased from Jackson laboratory and acclimatized for 3-4 days in this facility. Subsequently, mice scheduled for normoxic vs. hypoxic exposure were maintained in either normoxia or a normobaric hypoxia chamber for 1 or 3 weeks (OxyCycler, Biospherix Ltd.), where consistent exposure to 10% oxygen and control for temperature and humidity were possible.\nI-BET was dissolved in DMSO at 100× concentration and then made into a working solution in 20% PEG400 and 80% 1×PBS.\nMale and female 8 week old Lgals8−/− mice were exposed to hypoxia for 3 weeks. Littermates were used as wildtype (WT) control when comparing with knockout mice.\nImmunofluorescent staining: Cryostat sections were cut from OCT-embedded lung tissues at 5-10 μm and mounted on gelatin-coated histological slides. Slides were thawed at room temperature for 10-20 min and rehydrated in wash buffer for 10 minutes. All sections were blocked in 10% donkey scrum and exposed to primary antibody and Alexa 488, 568 and 647-conjugated secondary antibodies (Thermo Fisher Scientific). The following primary antibodies were used: Lgals8 (Ab69631, Abcam; 1/2200), IL-1 (ab9722, Abcam; 1%200), GSTP1 (ab153949, Abcam; 1:100), ISCU (14812-1-AP, Proteintech; 1:100), cleaved caspase 3 (cs-9661, Cell Signaling; 1/400), α-SMA (F3777, Sigma; I/200) and CD31 (ab7388, Abcam: 1/200). Images were obtained using Nikon A1 confocal microscope with 40× objective. Small pulmonary vessels (10 vessels/section) that were not associated with bronchial airways were selected for analysis. Intensity of staining was quantified using ImageJ software (NIH). Degree of pulmonary arteriolar muscularization was assessed in OCT lung sections stained for α-SMA by calculation of the proportion of fully and partially muscularized peripheral (<100 μm diameter) pulmonary arteriole to total peripheral pulmonary arterioles (Bertero T et al. J Clin Invest. 2014, 124, 3514-3528)."}, "[6]": {"system": "LGALS8", "assay": "Immunoblot and densitometry of LGALS8 isoforms in PAECs", "type": "cell-based, human", "conditions": "IL-1β, listed as I-BET", "protocol": "(§2) Immunoblot and densitometry: Cells were lysed in RIPA buffer (Sigma) along with 1× protease inhibitor cocktail (Sigma). Protein lysate was resolved by gradient 4%-15% SDS-PAGE gels and transferred onto a 0.2 μm PVDF membrane (Bio-Rad). Membranes were blocked in 5% non-fat milk in 1×PBST buffer for one hour at room temperature. Later, they were incubated in the presence of the primary antibody overnight at 4° C., and then appropriate HRP-conjugated secondary antibodies (Life Technologies). The following antibodies were used: human LGALS8 (AF1305, RnD Systems), mouse/rat Lgals8 ([…], Abcam), pSTAT1 (ab29045, Abcam) and STAT1 (ab47425, Abcam), GSTP1 (ab153949, Abcam), ISCU (14812-1-AP, Pointech), Glutathione (ab19534, Abcam), HIF2A (NB100-122, Novous), α-Tubulin (CP06, Millipore sigma), and ACTB (sc-47778, Santa Cruz). The immunoreactive bands were visualized with the Chemidoc XRS+ system (Bio-Rad) using SuperSignal West Femto chemiluminescent substrates (Thermo Fisher Scientific). The images were later quantified using AlphaEaseFC software (Alpha Innotech)."}, "[7]": {"system": "SU5416-hypoxic pulmonary arterial hypertension rats", "assay": "SU5416-hypoxia pulmonary arterial hypertension rat model, disease-reversal dosing", "type": "in vivo, Sprague-Dawley rats", "conditions": "SU5416-hypoxia rats", "protocol": "Briefly, 10 week old male Sprague-Dawley rats were injected i.p. with 20 mg/kg of SU5416 (Sigma), placed in normobaric hypoxia (10% 02) for 3 weeks and then transferred to normoxia for 2 weeks. During hypoxic exposure, chambers were opened twice a week for cleaning and replenishment of food and water. […] For BRD2889 vs. vehicle control dosing, i.p. injections every 5 days (5 mg/kg) were administered during the final two weeks of normoxia. Oxygen concentrations were continuously monitored with blood gas analyzers.\nMeasurement of GST activity: The GST activity from lung tissue and PAECs was assayed using GST assay kit (Cayman, MI, USA) per the manufacturer's instructions.\nRodent echocardiography: Echocardiography was performed using a 15-45M Hz transthoracic transducer and a Visual Sonics Vevo 3100 system (Fujifilm). Inhaled isoflurane anesthesia was used at 2% in 100% 02 during positioning and hair removal and then decreased to isoflurane 0.8% during imaging."}, "[8]": {"system": "ISCU", "assay": "Protein stability assay (proteasome inhibitor MG132) in hypoxic PAECs", "type": "cell-based, human", "parameters": "dose or concentration left out as unconfirmed", "conditions": "MG132 (2 h)", "protocol": "Protein stability assay: The proteasome inhibitor MG132 (M7449, Sigma) was stored at −20° C. at a concentration of 10 mM diluted in dimethyl sulfoxide (DMSO). PAECs were exposed to MG132 ([…]) vs. DMSO vehicle control for 2 hr under hypoxia, prior to harvesting of cellular lysate for immunoblotting.\nas §2"}, "[9]": {"conditions": "IL-1β 10 ng/ml 48 h, 500 nM vs vehicle control"}, "[10]": {"conditions": "IL-1β 10 ng/ml 48 h, 500 nM vs vehicle control, listed as I-BET"}, "[11]": {"conditions": "hypoxic mice, I-BET762 30 mg/kg daily oral"}, "[12]": {"conditions": "I-BET762 30 mg/kg daily i.p. or BRD2889 5 mg/kg i.p. every 5 days, final 2 weeks"}, "[13]": {"conditions": "IL-1β 48 h, I-BET plus rhGal8 24 h (30 nM)"}}, "note": "“Also recorded” adds a separate entry of the source. Where a SMILES comes first, the peptide text is derived from it. The star is where a group is joined. Cbz = O=C(OCc1ccccc1)*", "data": [{"molecule": "O=C(Cc1cccc(OC(F)(F)F)c1)Nc1ccc(CCCCc2nnc(NC(=O)Cc3ccccn3)s2)nn1", "note": "[CB-839, reference compound]", "values": [{"measurement": "Fulton index", "setting": "[1]", "value": "significantly decreased"}, {"measurement": "right ventricular systolic pressure (RVSP)", "setting": "[1]", "value": "significantly decreased"}]}, {"molecule": "COc1cc2c(cc1-c1c(C)noc1C)ncc1[nH]c(=O)n([C@H](C)c3ccccn3)c12", "note": "[I-BET151]", "values": [{"measurement": "expression of Cluster 15 members (SLC9A3R1, LGALS3)", "setting": "[2]", "value": "reversed"}]}, {"molecule": "CCNC(=O)C[C@@H]1N=C(c2ccc(Cl)cc2)c2cc(OC)ccc2-n2c(C)nnc21", "note": "[I-BET762]", "values": [{"measurement": "mitochondrial superoxide (O2−) levels, MitoSOX Red", "setting": "[3]; [9]", "value": "reversed the IL-1β-induced increases; also recorded: reversed by I-BET762"}, {"measurement": "mitochondrial superoxide (O2−) levels, MitoSOX Red", "setting": "[3]; [10]", "value": "reduced the IL-1β-dependent increase"}, {"measurement": "mitochondrial superoxide (O2−) levels, MitoSOX Red", "setting": "[3]; hypoxia 24 h, vs vehicle control", "value": "reversed the hypoxia-induced increases"}, {"measurement": "apoptosis, caspase-3/7 activity", "setting": "[4]; [9]", "value": "reversed the IL-1β-induced increases"}, {"measurement": "apoptosis, caspase-3/7 activity", "setting": "[4]; [10]", "value": "reduced the IL-1β-dependent increase"}, {"measurement": "apoptosis, caspase-3/7 activity", "setting": "[4]; hypoxia 24 h, I-BET vs vehicle control", "value": "reversed the hypoxia-induced increases"}, {"measurement": "cleaved caspase-3 (apoptosis)", "setting": "[5]; [11]", "value": "reduced downstream apoptosis; also recorded: reversed the 3 week hypoxia-dependent increases"}, {"measurement": "heart rate", "setting": "[5]; [11]", "value": "without significant effect"}, {"measurement": "pulmonary vascular LGALS8 expression", "setting": "[5]; [11]", "value": "robustly decreased; also recorded: reversed the 3 week hypoxia-dependent increases"}, {"measurement": "pulmonary vascular muscularization (α-SMA)", "setting": "[5]; [11]", "value": "reduced; also recorded: reversed the 3 week hypoxia-dependent increases"}, {"measurement": "right ventricular systolic pressure (RVSP)", "setting": "[5]; [11]", "value": "reduced; also recorded: reversed the 3 week hypoxia-dependent increases"}, {"measurement": "LGALS8", "setting": "[5]; normoxic mice, similar dosing, mean±SEM, vehicle control 1±0.02, p=NS", "value": "1.08±0.03", "unit": "fold change"}, {"measurement": "LGALS8-L protein (immunoblot densitometry)", "setting": "[6]", "value": "followed its mRNA expression; also recorded: reversed the IL-1β-induced increase"}, {"measurement": "LGALS8-M protein (immunoblot densitometry)", "setting": "[6]", "value": "no significant difference"}, {"measurement": "LGALS8 in pulmonary arterioles (immunofluorescence)", "setting": "[7]; I-BET762 30 mg/kg daily i.p. Days 21-35", "value": "decreased"}, {"measurement": "arteriolar muscularization (α-SMA)", "setting": "[7]; [12]", "value": "reduced"}, {"measurement": "cleaved caspase-3 (CC-3), endothelial apoptosis", "setting": "[7]; [12]", "value": "reduced downstream apoptosis; also recorded: decreased"}, {"measurement": "right ventricular systolic pressure (RVSP)", "setting": "[7]; [12]", "value": "reduced"}, {"measurement": "LGALS8-L transcript", "setting": "[2]; IL-1β", "value": "reversed the alterations"}, {"measurement": "expression of C15 genes LGALS3, LGALS8, DAG1, SLC9A3R1 (extent of reversal)", "setting": "[2]; IL-1β", "value": "near complete reversal"}, {"measurement": "expression of CD47, ABCC4 and DAG1", "setting": "[2]; IL-1β", "value": "all rescued"}, {"measurement": "expression of Cluster 15 (C15) gene galectin-8 (LGALS8)", "setting": "[2]; IL-1β", "value": "reversed the IL-1β-induced increases"}, {"measurement": "LGALS8-L transcript", "setting": "[2]; IL-1β, listed as I-BET", "value": "reversed by I-BET"}, {"measurement": "LGALS8-M transcript", "setting": "[2]; IL-1β, listed as I-BET", "value": "not altered by I-BET"}, {"measurement": "expression of Cluster 15 members (SLC9A3R1, LGALS3)", "setting": "[2]", "value": "reversed"}]}, {"molecule": "CC(C)C[C@@H](C=O)NC(=O)[C@H](CC(C)C)NC(=O)[C@H](CC(C)C)NC(=O)OCc1ccccc1", "note": "[MG132] (Cbz-Leu-Leu-Leu-aldehyde)", "values": [{"measurement": "GSTP1 and ISCU glutathionylation", "setting": "[8]", "value": "without affecting GSTP1 or glutathionylation"}, {"measurement": "ISCU protein", "setting": "[8]", "value": "reversed the hypoxic down-regulation of ISCU; also recorded: reversed the hypoxia-induced reduction of ISCU"}]}, {"molecule": "O=C(Cc1ccccc1)Nc1nnc(NC2CCN(c3nnc(NC(=O)CC4CC4)s3)CC2)s1", "note": "[UPGL00064]", "values": [{"measurement": "Fulton index, compared with CB-839", "setting": "[1]; 10 mg/kg daily i.p. Days 7-21", "value": "more robust trend toward lower Fulton index"}, {"measurement": "RVSP, compared with CB-839", "setting": "[1]; 10 mg/kg daily i.p. Days 7-21", "value": "more robust trend toward lower RVSP"}, {"measurement": "Fulton index", "setting": "[1]", "value": "significantly decreased"}, {"measurement": "right ventricular systolic pressure (RVSP)", "setting": "[1]", "value": "significantly decreased"}]}, {"molecule": "B1", "values": [{"measurement": "mitochondrial O2−: effect of rhGal8 on the I-BET-induced attenuation", "setting": "[3]; [13]", "value": "reduced the ability of I-BET to decrease; also recorded: reversed the I-BET-induced attenuation; also recorded: attenuated"}, {"measurement": "mitochondrial superoxide", "setting": "[3]; rhGal8 alone", "value": "alone had no effect"}, {"measurement": "caspase 3/7 activity (apoptosis): effect of rhGal8 on the I-BET-induced attenuation", "setting": "[4]; [13]", "value": "reduced the ability of I-BET to decrease; also recorded: reversed the I-BET-induced attenuation"}, {"measurement": "apoptosis", "setting": "[4]; rhGal8 alone", "value": "alone had no effect"}]}]}
